Data reported in patent US20100272680A1, “Piperidinyl Cyclic Amido Antiviral Agents” (priority 2009, published 2010).
pEC50: −log10 of the molar value.

How the values were obtained:
HCV Genotype 1A Replicon = assay: Replicon assay, genotype 1a subgenomic replicon, luciferase readout; assay type: cell-based; conditions: Hepatitis C virus, 48 h, Table 3; luciferase activity after 48 hours
In short: (§1)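 EC50 values came from four-parameter logistic fits of 10-point dose responses (3–4-fold steps, final 0.03–50 μM, 0.5–1% DMSO), normalized against no-compound and no-cell controls. Firefly luciferase was read 48 h after plating 0.5×10^4 replicon cells/well, 1b ET or 1a Apath-derived line.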

HCV Genotype 1B Replicon = assay: Replicon assay, genotype 1b subgenomic replicon (ET cell line), luciferase readout; assay type: cell-based; conditions: Hepatitis C virus, 48 h, Table 3; luciferase activity after 48 hours
In short: as §1

Structure (SMILES) | pEC50 (HCV Genotype 1A Replicon) | pEC50 (HCV Genotype 1B Replicon)
O=C(c1nc2c(C(F)(F)F)cc(-c3ccccc3O)cn2c1Cl)N1CCC(N2CCOC2=O)CC1 [Compound 121] | 6.36 | 5.55
CCOc1cc(C(F)(F)F)c2nc(C(=O)N3CCC(N4CCOC4=O)CC3)c(Cl)n2c1 [Compound 135, 3-(1-{[3-chloro-6-(ethyloxy)-8-(trifluoromethyl)imidazo[1,2-a]pyridin-2-yl]carbonyl}-4-piperidinyl)-1,3-oxazolidin-2-one] | 7.15 | 6.66
O=C(c1nc2c(C(F)(F)F)cc(-c3cn[nH]c3)cn2c1Cl)N1CCC(N2C(=O)CNC2=O)CC1 [Compound 174, 3-(1-{[3-chloro-6-(1H-pyrazol-4-yl)-8-(trifluoromethyl)imidazo[1,2-a]pyridin-2-yl]carbonyl}-4-piperidinyl)-2,4-imidazolidinedione] | 4.60 | 5.64
Cc1c(C(=O)N2CCC(N3CCOC3=O)CC2)nc2c(C(F)(F)F)cc(-c3ccoc3)cn12 [Compound 164, 3-(1-{[6-(3-furanyl)-3-methyl-8-(trifluoromethyl)imidazo[1,2-a]pyridin-2-yl]carbonyl}-4-piperidinyl)-1,3-oxazolidin-2-one] | 7.52 | 7.00
C[C@H]1OC(=O)N(C2CCN(C(=O)c3nc4c(C(F)(F)F)cc(-c5ccoc5)cn4c3Cl)CC2)C1=O [Compound 191, (5R)-3-(1-{[3-chloro-6-(3-furanyl)-8-(trifluoromethyl)imidazo[1,2-a]pyridin-2-yl]carbonyl}-4-piperidinyl)-5-methyl-1,3-oxazolidine-2,4-dione] | 6.68 | 7.40
O=C(c1nc2c(C(F)(F)F)cc(Cl)cn2c1Cl)N1CCC(N2CCCC2=O)CC1 [Compound 110, 1-(1-{[3,6-dichloro-8-(trifluoromethyl)imidazo[1,2-a]pyridin-2-yl]carbonyl}-4-piperidinyl)-2-pyrrolidinone] | 5.76 | 6.10
CC1(C)CN(C2CCN(C(=O)c3nc4c(C(F)(F)F)cc(-c5ccoc5)cn4c3Cl)CC2)C(=O)O1 [Compound 181, 3-(1-{[3-chloro-6-(3-furanyl)-8-(trifluoromethyl)imidazo[1,2-a]pyridin-2-yl]carbonyl}-4-piperidinyl)-5,5-dimethyl-1,3-oxazolidin-2-one] | 5.19 | 5.15
O=C(c1nc2c(C(F)(F)F)cc(Br)cn2c1Cl)N1CC[C@H](N2CCCC2=O)[C@@H](O)C1 (racemic) [Compound 226, (±) trans-1-(1-{[6-bromo-3-chloro-8-(trifluoromethyl)imidazo[1,2-a]pyridin-2-yl]carbonyl}-3-hydroxy-4-piperidinyl)-2-pyrrolidinone] | 5.65 | 5.84
COc1ccc(-c2cc(C(F)(F)F)c3nc(C(=O)N4CCC(N5CCOC5=O)CC4)c(Cl)n3c2)cc1 [Compound 118] | 6.82 | 4.75
N#Cc1c(C(=O)N2CCC(N3C(=O)COC3=O)CC2)nc2c(C(F)(F)F)cc(-c3ccoc3)cn12 [Compound 161, 2-{[4-(2,4-dioxo-1,3-oxazolidin-3-yl)-1-piperidinyl]carbonyl}-6-(3-furanyl)-8-(trifluoromethyl)imidazo[1,2-a]pyridine-3-carbonitrile] | 7.52 | 7.52
O=C(c1nc2c(C(F)(F)F)cc(-c3ccncc3)cn2c1Cl)N1CCC(N2CCOC2=O)CC1 [Compound 113] | 6.13 | 5.02
O=C(c1nc2c(C(F)(F)F)cc(C3CC3)cn2c1Cl)N1CC[C@H](N2CCOC2=O)[C@H](O)C1 (racemic) [Compound 231, (±) cis-3-(1-{[3-chloro-6-cyclopropyl-8-(trifluoromethyl)imidazo[1,2-a]pyridin-2-yl]carbonyl}-3-hydroxy-4-piperidinyl)-1,3-oxazolidin-2-one] | 7.70 | 7.52
O=C(c1nc2c(C(F)(F)F)cc(C3CC3)cn2c1Cl)N1CCC(N2C(=O)CCC2=O)CC1 [Compound 200, 1-(1-{[3-chloro-6-cyclopropyl-8-(trifluoromethyl)imidazo[1,2-a]pyridin-2-yl]carbonyl}-4-piperidinyl)-2,5-pyrrolidinedione] | 6.77 | 7.52
O=C(c1nc2c(C(F)(F)F)cc(-c3ccoc3)cn2c1Cl)N1CC[C@@H](N2CCOC2=O)[C@H](O)C1 (racemic) [Compound 212, (±) trans-3-(1-{[3-chloro-6-(3-furanyl)-8-(trifluoromethyl)imidazo[1,2-a]pyridin-2-yl]carbonyl}-3-hydroxy-4-piperidinyl)-1,3-oxazolidin-2-one] | 7.30 | 7.10
O=C(c1nc2c(C(F)(F)F)cc(-c3ccc[nH]3)cn2c1Cl)N1CCC(N2CCOC2=O)CC1 [Compound 150, 3-(1-{[3-chloro-6-(1H-pyrrol-2-yl)-8-(trifluoromethyl)imidazo[1,2-a]pyridin-2-yl]carbonyl}-4-piperidinyl)-1,3-oxazolidin-2-one] | 6.64 | 6.35
O=C(c1nc2c(C(F)(F)F)cc(Br)cn2c1Cl)N1CC[C@H](N2CCOC2=O)[C@@H](O)C1 (racemic) [Compound 219, (±) trans-3-(1-{[6-bromo-3-chloro-8-(trifluoromethyl)imidazo[1,2-a]pyridin-2-yl]carbonyl}-3-hydroxy-4-piperidinyl)-1,3-oxazolidin-2-one] | 6.82 | 6.24
CC(O)c1cc(C(F)(F)F)c2nc(C(=O)N3CCC(N4CCOC4=O)CC3)c(Cl)n2c1 (stereo not drawn) [Compound 155, 3-(1-{[3-chloro-6-(1-hydroxyethyl)-8-(trifluoromethyl)imidazo[1,2-a]pyridin-2-yl]carbonyl}-4-piperidinyl)-1,3-oxazolidin-2-one] | 6.20 | 5.97
O=C(c1nc2c(C(F)(F)F)cc(Br)cn2c1Cl)N1CC[C@H](N2CCOC2=O)[C@H](O)C1 (racemic) [Compound 233, (±) cis-3-(1-{[6-bromo-3-chloro-8-(trifluoromethyl)imidazo[1,2-a]pyridin-2-yl]carbonyl}-3-hydroxy-4-piperidinyl)-1,3-oxazolidin-2-one] | 6.96 | 6.74
C[C@@H]1OC(=O)N(C2CCN(C(=O)c3nc4c(C(F)(F)F)cc(C5CC5)cn4c3Cl)CC2)C1=O [Compound 189, (5S)-3-(1-{[3-chloro-6-cyclopropyl-8-(trifluoromethyl)imidazo[1,2-a]pyridin-2-yl]carbonyl}-4-piperidinyl)-5-methyl-1,3-oxazolidine-2,4-dione] | 6.66 | 7.52
CO[C@H]1CN(C(=O)c2nc3c(C(F)(F)F)cc(-c4ccoc4)cn3c2Cl)CC[C@@H]1N1CCOC1=O (racemic) [Compound 236, (±) trans-3-[1-{[3-chloro-6-(3-furanyl)-8-(trifluoromethyl)imidazo[1,2-a]pyridin-2-yl]carbonyl}-3-(methyloxy)-4-piperidinyl]-1,3-oxazolidin-2-one] | ≤ 5.30 | ≤ 5.30
Cc1cc(C(F)(F)F)c2nc(C(=O)N3CCC(N4CCOC4=O)CC3)c(Cl)n2c1 [Compound 151, 3-(1-{[3-chloro-6-methyl-8-(trifluoromethyl)imidazo[1,2-a]pyridin-2-yl]carbonyl}-4-piperidinyl)-1,3-oxazolidin-2-one] | 6.19 | 6.30
